Measured values reported in ChEMBL document CHEMBL1667786, “Synthesis and biological evaluation of indole-chalcone derivatives as β-amyloid imaging probe” (Bioorg Med Chem Lett, 2011).
Active and inactive are the calls of the source. The rule behind the calls is not given here.

Tests used:
[1] = Displacement of [125I]IMPY from amyloid beta 1 to 42 after 2 hrs
Mus musculus [2] = organism: Mus musculus; assay: Binding affinity to amyloid beta in APP/PS1 transgenic C57 mouse cortex at 1 uM after 10 mins by autoradiography; conditions: tested as the 125I-labelled form
Mus musculus [3] = organism: Mus musculus; assay: Binding affinity to amyloid beta in APP/PS1 transgenic C57 mouse brain at 1 uM after 10 mins by Thioflavin-S fluorescence assay; type: tissue-based; conditions: tested as the 125I-labelled form

Q: With `CNc1ccc(C(=O)/C=C/c2ccc3[nH]ccc3c2)cc1` as the molecule, how does the Ki [1] read?
A: 51.1 nM

Q: Which Activity (Mus musculus [2]) does the source give for `O=C(/C=C/c1ccc2[nH]ccc2c1)c1ccc(I)cc1` here?
A: Active

Q: And the Activity (Mus musculus [3])?
A: Active

Q: What about the Ki [1] of the same molecule?
A: 8.22 nM

Q: For `O=C(/C=C/c1ccc2[nH]ccc2c1)c1ccc(F)cc1`, which Ki [1] is on record?
A: 35.1 nM

Q: With `COc1ccc2cc(C(=O)/C=C/c3ccc4[nH]ccc4c3)ccc2c1` as the molecule, how does the Ki [1] read?
A: 4.46 nM

Q: For `COc1ccc(C(=O)/C=C/c2ccc3[nH]ccc3c2)cc1`, which Ki [1] is on record?
A: 8.52 nM

Q: For `O=C(/C=C/c1ccc2[nH]ccc2c1)c1ccc(Br)cc1`, which Ki [1] is on record?
A: 8.96 nM
